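Growth conditions: 96-well plates. Treatment: test compound, 48 hours, 5 concentrations. Analysis: linear interpolation between bracketing concentrations; unreached endpoints set to highest concentration. The concentration for full growth arrest is given as TGI.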
Columns and labels:
Test in all cases: NCI anticancer screen, dose series, 48 h
786-0 renal = system: 786-0 renal
A498 renal = system: A498 renal
A549 NSCLC = system: A549 NSCLC
ACHN renal = system: ACHN renal
CAKI-1 renal = system: CAKI-1 renal
CCRF-CEM leukemia = system: CCRF-CEM leukemia
COLO 205 colon = system: COLO 205 colon
DU-145 prostate = system: DU-145 prostate
EKVX NSCLC = system: EKVX NSCLC
HCC-2998 colon = system: HCC-2998 colon
HCT-116 colon = system: HCT-116 colon
HCT-15 colon = system: HCT-15 colon
HL-60(TB) leukemia = system: HL-60(TB) leukemia
HOP-62 NSCLC = system: HOP-62 NSCLC
HOP-92 NSCLC = system: HOP-92 NSCLC
HS 578T breast = system: HS 578T breast
HT29 colon = system: HT29 colon
IGROV1 ovarian = system: IGROV1 ovarian
K-562 leukemia = system: K-562 leukemia
KM12 colon = system: KM12 colon
LOX IMVI melanoma = system: LOX IMVI melanoma
M14 melanoma = system: M14 melanoma
MALME-3M melanoma = system: MALME-3M melanoma
MCF7 breast = system: MCF7 breast
MDA-MB-231 breast = system: MDA-MB-231 breast
MDA-MB-435 = system: MDA-MB-435
MDA-N = system: MDA-N
MOLT-4 leukemia = system: MOLT-4 leukemia
NCI-H226 lung = system: NCI-H226 lung
NCI-H23 lung = system: NCI-H23 lung
NCI-H460 lung = system: NCI-H460 lung
NCI-H522 lung = system: NCI-H522 lung
NCI/ADR-RES ovarian = system: NCI/ADR-RES ovarian
OVCAR-3 ovarian = system: OVCAR-3 ovarian
OVCAR-4 ovarian = system: OVCAR-4 ovarian
OVCAR-5 ovarian = system: OVCAR-5 ovarian
OVCAR-8 ovarian = system: OVCAR-8 ovarian
PC-3 prostate = system: PC-3 prostate
RPMI-8226 leukemia = system: RPMI-8226 leukemia
RXF 393 renal = system: RXF 393 renal
SF-268 CNS = system: SF-268 CNS
SF-295 CNS = system: SF-295 CNS
SF-539 CNS = system: SF-539 CNS
SK-MEL-2 melanoma = system: SK-MEL-2 melanoma
SK-MEL-28 melanoma = system: SK-MEL-28 melanoma
SK-MEL-5 melanoma = system: SK-MEL-5 melanoma
SK-OV-3 ovarian = system: SK-OV-3 ovarian
SN12C renal = system: SN12C renal
SNB-19 CNS = system: SNB-19 CNS
SNB-75 CNS = system: SNB-75 CNS
SR leukemia = system: SR leukemia
SW-620 colon = system: SW-620 colon
T-47D breast = system: T-47D breast
TK-10 renal = system: TK-10 renal
U251 CNS = system: U251 CNS
UACC-257 melanoma = system: UACC-257 melanoma
UACC-62 melanoma = system: UACC-62 melanoma
UO-31 renal = system: UO-31 renal

`c1ccc2c(c1)[nH]c1c3ccccc3sc21` showed a TGI (786-0 renal) greater than 100 µM, a TGI (A498 renal) greater than 100 µM and a TGI (A549 NSCLC) greater than 100 µM. The TGI (ACHN renal) was greater than 100 µM, the TGI (CAKI-1 renal) was greater than 100 µM and the TGI (CCRF-CEM leukemia) was greater than 100 µM. The TGI (COLO 205 colon) was greater than 100 µM, the TGI (DU-145 prostate) was greater than 100 µM and the TGI (EKVX NSCLC) was greater than 100 µM. For the same compound, the TGI (HCC-2998 colon) was greater than 100 µM, the TGI (HCT-116 colon) was greater than 100 µM and the TGI (HCT-15 colon) was greater than 100 µM. The TGI (HL-60(TB) leukemia) was greater than 100 µM, the TGI (HOP-62 NSCLC) was greater than 100 µM and the TGI (HOP-92 NSCLC) was greater than 100 µM. It also gave a TGI (HS 578T breast) greater than 100 µM, a TGI (HT29 colon) greater than 100 µM and a TGI (IGROV1 ovarian) greater than 100 µM. For the same compound, the TGI (K-562 leukemia) was greater than 100 µM, the TGI (KM12 colon) was greater than 100 µM and the TGI (LOX IMVI melanoma) was greater than 100 µM. It also gave a TGI (M14 melanoma) greater than 100 µM, a TGI (MALME-3M melanoma) greater than 100 µM and a TGI (MCF7 breast) greater than 100 µM. For the same compound, the TGI (MDA-MB-231 breast) was greater than 100 µM, the TGI (MDA-MB-435) was greater than 100 µM and the TGI (MDA-N) was greater than 100 µM. For the same compound, the TGI (MOLT-4 leukemia) was greater than 100 µM, the TGI (NCI-H226 lung) was greater than 100 µM and the TGI (NCI-H23 lung) was greater than 100 µM. The TGI (NCI-H460 lung) was greater than 100 µM, the TGI (NCI-H522 lung) was greater than 100 µM and the TGI (NCI/ADR-RES ovarian) was greater than 100 µM. For the same compound, the TGI (OVCAR-3 ovarian) was greater than 100 µM, the TGI (OVCAR-4 ovarian) was greater than 100 µM and the TGI (OVCAR-5 ovarian) was greater than 100 µM. The TGI (OVCAR-8 ovarian) was greater than 100 µM, the TGI (PC-3 prostate) was greater than 100 µM and the TGI (RPMI-8226 leukemia) was greater than 100 µM. The TGI (RXF 393 renal) was greater than 100 µM, the TGI (SF-268 CNS) was greater than 100 µM and the TGI (SF-295 CNS) was greater than 100 µM. For the same compound, the TGI (SF-539 CNS) was greater than 100 µM, the TGI (SK-MEL-2 melanoma) was greater than 100 µM and the TGI (SK-MEL-28 melanoma) was greater than 100 µM. The TGI (SK-MEL-5 melanoma) was greater than 100 µM, the TGI (SK-OV-3 ovarian) was greater than 100 µM and the TGI (SN12C renal) was greater than 100 µM. It also gave a TGI (SNB-19 CNS) greater than 100 µM, a TGI (SNB-75 CNS) greater than 100 µM and a TGI (SR leukemia) greater than 100 µM. It also gave a TGI (SW-620 colon) greater than 100 µM, a TGI (T-47D breast) greater than 100 µM and a TGI (TK-10 renal) greater than 100 µM. It also gave a TGI (U251 CNS) greater than 100 µM, a TGI (UACC-257 melanoma) greater than 100 µM and a TGI (UACC-62 melanoma) greater than 100 µM. It also gave a TGI (UO-31 renal) greater than 100 µM.
`Cc1ccc2c(c1)CC1(C2)Cc2ccc(C)cc2C1=O` (stereo not given) gave a TGI (786-0 renal) of 63 µM, a TGI (A498 renal) greater than 100 µM and a TGI (A549 NSCLC) greater than 100 µM. The TGI (ACHN renal) was greater than 100 µM, the TGI (CAKI-1 renal) was 87.2 µM and the TGI (CCRF-CEM leukemia) was 62.3 µM. It also gave a TGI (COLO 205 colon) of 44.3 µM, a TGI (DU-145 prostate) greater than 100 µM and a TGI (EKVX NSCLC) of 88.7 µM. The TGI (HCC-2998 colon) was 85 µM, the TGI (HCT-116 colon) was 71.9 µM and the TGI (HCT-15 colon) was 79.5 µM. The TGI (HL-60(TB) leukemia) was 63.4 µM, the TGI (HOP-62 NSCLC) was 97.8 µM and the TGI (HOP-92 NSCLC) was 66.3 µM. It also gave a TGI (HS 578T breast) greater than 100 µM, a TGI (HT29 colon) of 56.2 µM and a TGI (IGROV1 ovarian) greater than 100 µM. The TGI (K-562 leukemia) was greater than 100 µM, the TGI (KM12 colon) was 53.6 µM and the TGI (LOX IMVI melanoma) was 36.4 µM. For the same compound, the TGI (M14 melanoma) was 71.6 µM, the TGI (MALME-3M melanoma) was 43.8 µM and the TGI (MCF7 breast) was 89 µM. The TGI (MDA-MB-231 breast) was 62.5 µM, the TGI (MDA-MB-435) was greater than 100 µM and the TGI (MDA-N) was 73.1 µM. For the same compound, the TGI (MOLT-4 leukemia) was 45.7 µM, the TGI (NCI-H226 lung) was 61.6 µM and the TGI (NCI-H23 lung) was greater than 100 µM. It also gave a TGI (NCI-H460 lung) of 55.5 µM, a TGI (NCI-H522 lung) of 61.3 µM and a TGI (NCI/ADR-RES ovarian) of 62.6 µM. The TGI (OVCAR-3 ovarian) was greater than 100 µM, the TGI (OVCAR-4 ovarian) was greater than 100 µM and the TGI (OVCAR-5 ovarian) was greater than 100 µM. It also gave a TGI (OVCAR-8 ovarian) greater than 100 µM, a TGI (PC-3 prostate) greater than 100 µM and a TGI (RPMI-8226 leukemia) of 95.3 µM. The TGI (RXF 393 renal) was 54.4 µM, the TGI (SF-268 CNS) was greater than 100 µM and the TGI (SF-295 CNS) was greater than 100 µM. For the same compound, the TGI (SF-539 CNS) was 87.3 µM, the TGI (SK-MEL-2 melanoma) was 47.1 µM and the TGI (SK-MEL-28 melanoma) was greater than 100 µM. It also gave a TGI (SK-MEL-5 melanoma) of 26 µM, a TGI (SK-OV-3 ovarian) greater than 100 µM and a TGI (SN12C renal) greater than 100 µM. For the same compound, the TGI (SNB-19 CNS) was greater than 100 µM, the TGI (SNB-75 CNS) was 84.3 µM and the TGI (SR leukemia) was 57 µM. For the same compound, the TGI (SW-620 colon) was greater than 100 µM, the TGI (T-47D breast) was greater than 100 µM and the TGI (TK-10 renal) was greater than 100 µM. It also gave a TGI (U251 CNS) greater than 100 µM, a TGI (UACC-257 melanoma) of 48.1 µM and a TGI (UO-31 renal) greater than 100 µM.
